In the NIST ThermoML archive (doi:10.1021/je900596d):

Conditions: 343.26 K, Fluid (supercritical or subcritical phases), Vibrating tube method

FC(F)=C(F)C(F)(F)F [hexafluoropropene]
Conditions	mass density [kg/m3]
32 kPa	1.75
33.6 kPa	1.83
36.6 kPa	1.97
38.2 kPa	2.07
39.9 kPa	2.11
43.2 kPa	2.31
45.9 kPa	2.54
50.6 kPa	2.72
55.4 kPa	3
59.9 kPa	3.25
63.1 kPa	3.46
66.1 kPa	3.7
70.8 kPa	3.87
72.4 kPa	3.95
74.2 kPa	4.04
77.2 kPa	4.21
80.1 kPa	4.42
81.8 kPa	4.49
83.4 kPa	4.54
86.6 kPa	4.74
89.9 kPa	4.91
94.8 kPa	5.2
97.7 kPa	5.42
104 kPa	5.73
110.1 kPa	6.1
116.3 kPa	6.4
122.7 kPa	6.8
129.3 kPa	7.14
135.5 kPa	7.51
141.7 kPa	7.92
148.2 kPa	8.27
154.4 kPa	8.6
160.9 kPa	8.89
170.1 kPa	9.39
176.8 kPa	9.8
183.2 kPa	10.15
189.6 kPa	10.49
200.5 kPa	11.16
213.3 kPa	11.94
225.8 kPa	12.7
237.9 kPa	13.34
250.5 kPa	14.05
262.7 kPa	14.74
274 kPa	15.32
286 kPa	16.09
298.3 kPa	16.8
311.2 kPa	17.55
323.1 kPa	18.22
335.5 kPa	18.98
347.7 kPa	19.66
360 kPa	20.46
372.1 kPa	21.09
384.1 kPa	21.84
396.5 kPa	22.56
408.2 kPa	23.28
420.5 kPa	24.04
431.3 kPa	24.66
443.3 kPa	25.35
455.1 kPa	26
466.9 kPa	26.77
478.8 kPa	27.49
490.9 kPa	28.19
507.3 kPa	29.18
521.6 kPa	30.11
535.5 kPa	30.9
548.6 kPa	31.65
561.3 kPa	32.53
